The values that follow come from paper PMC6521598, “Identification of GLPG/ABBV-2737, a Novel Class of Corrector, Which Exerts Functional Synergy With Other CFTR Modulators” (Frontiers in Pharmacology, 2019).

Structures are written as SMILES.

In this test the target is wild type CFTR (Homo sapiens, UniProt P13569). Kind of test: CFTR activity in normal HBE cells (NHBE). The conditions noted are these: forskolin 0.1 or 0.3 μM, potentiator GLPG2451 10 μM added afterwards. Format: cell-based. The arrangement: University of North Carolina; host or cells: primary normal human bronchial epithelial cells. Here is the method: Bronchial epithelial cells isolated from transplanted lungs from normal (wt CFTR) or CF patients homozygous for the F508del CFTR mutation, were obtained from McGill University (Montreal, QC, Canada) and University of North Carolina (Chapel Hill, NC, United States). Cells were isolated from lungs obtained from donors undergoing a planned transplantation. These primary cells were cultured directly on type IV collagen-coated polycarbonate Transwell supports with a diameter of 6.5 mm and pore size of 0.4 μm (Costar, #3397) for 18–25 days in air liquid (ali) interface essentially as previously described ([Fulcher et al., 2005]) for TECC. A similar cell culture protocol was used for Ussing chambers but using type IV collagen-coated polycarbonate Millicell supports with a diameter of 12 mm and a pore size of […] (Millicell, PIHP01250).
Corrector and/or potentiator compound(s) were added on the basolateral side of the HBEs for 24 h to rescue F508del CFTR. […] The transepithelial potential (PD) and transepithelial resistance (Rt) were measured in an open circuit and transformed to Ieq using Ohm’s law. […]
FIGURE 6 Effects of GLPG2737 on normal human bronchial epithelial cells (NHBE) and HEK cells expressing WT CFTR. […] (D) NHBE treated for 24 h with 1 μM GLPG2737 or DMSO (control), CFTR channel was activated with either 0.1 μM or 0.3μM forskolin, measured Isc shown in gray. […]

wild type CFTR, sequence (P13569 whole entry): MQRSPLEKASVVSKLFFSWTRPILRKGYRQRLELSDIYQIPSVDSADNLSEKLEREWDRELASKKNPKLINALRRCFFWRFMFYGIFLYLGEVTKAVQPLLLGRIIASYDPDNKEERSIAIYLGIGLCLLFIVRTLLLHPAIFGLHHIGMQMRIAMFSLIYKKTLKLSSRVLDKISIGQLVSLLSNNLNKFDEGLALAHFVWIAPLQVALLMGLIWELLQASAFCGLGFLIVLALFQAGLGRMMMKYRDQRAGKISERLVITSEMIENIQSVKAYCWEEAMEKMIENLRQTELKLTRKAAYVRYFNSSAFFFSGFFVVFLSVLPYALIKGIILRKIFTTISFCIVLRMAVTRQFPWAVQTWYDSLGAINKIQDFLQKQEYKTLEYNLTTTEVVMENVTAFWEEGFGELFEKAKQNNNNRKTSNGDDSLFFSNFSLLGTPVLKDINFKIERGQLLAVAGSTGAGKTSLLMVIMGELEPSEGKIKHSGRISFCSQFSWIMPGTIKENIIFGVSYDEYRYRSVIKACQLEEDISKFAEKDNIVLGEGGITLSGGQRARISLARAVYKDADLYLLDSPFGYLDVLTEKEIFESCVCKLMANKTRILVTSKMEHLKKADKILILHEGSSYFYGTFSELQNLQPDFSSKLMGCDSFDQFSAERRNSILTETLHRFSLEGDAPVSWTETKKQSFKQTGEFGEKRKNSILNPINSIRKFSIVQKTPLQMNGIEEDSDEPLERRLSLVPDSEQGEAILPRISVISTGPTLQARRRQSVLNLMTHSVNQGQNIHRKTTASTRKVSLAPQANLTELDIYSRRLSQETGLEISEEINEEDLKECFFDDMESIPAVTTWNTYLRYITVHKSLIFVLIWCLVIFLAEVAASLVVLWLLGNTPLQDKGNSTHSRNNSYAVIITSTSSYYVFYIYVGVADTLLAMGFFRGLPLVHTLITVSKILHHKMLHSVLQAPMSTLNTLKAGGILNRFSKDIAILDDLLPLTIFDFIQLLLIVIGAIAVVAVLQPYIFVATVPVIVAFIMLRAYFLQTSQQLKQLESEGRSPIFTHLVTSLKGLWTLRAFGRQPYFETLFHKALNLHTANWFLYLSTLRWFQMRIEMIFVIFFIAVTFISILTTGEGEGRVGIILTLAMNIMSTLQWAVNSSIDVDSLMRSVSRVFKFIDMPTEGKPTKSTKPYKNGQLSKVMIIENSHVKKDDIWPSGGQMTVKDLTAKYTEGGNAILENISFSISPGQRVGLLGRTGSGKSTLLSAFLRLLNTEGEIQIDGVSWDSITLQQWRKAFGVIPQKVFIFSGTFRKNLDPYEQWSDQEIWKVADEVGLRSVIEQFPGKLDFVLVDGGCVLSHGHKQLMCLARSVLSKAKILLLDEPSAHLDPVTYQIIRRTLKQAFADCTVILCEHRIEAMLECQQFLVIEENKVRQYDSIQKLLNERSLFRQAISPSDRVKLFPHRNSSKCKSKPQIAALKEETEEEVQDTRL

For the compound `COC1CCN(C2CCN(c3cc(C(=O)NS(=O)(=O)N(C)C)nc4c3c(C3CCC3)nn4-c3ccc(F)cc3)CC2)CC1` [GLPG2737], the CFTR activity entry is listed as “reduced CFTR activity which could be rescued upon addition of a potentiator”.
